From ChEMBL document CHEMBL3817783, “Identification of Potential Off-target Toxicity Liabilities of Catechol-O-methyltransferase Inhibitors by Differential Competition Capture Compound Mass Spectrometry” (J Med Chem, 2016)
Calls of active or inactive are those of the source. The rule behind the calls is not given here.

What was measured:
Pyridoxal kinase = target: T1, Pyridoxal kinase (Homo sapiens, UniProt O00764); experiment: Binding affinity to PDXK in human HepG2 assessed as intensity fold change of cumulated normalized intensity of protein between capture and competition assay at 100 uM after 1 hr in presence of inactive Tcp-CC 14 by differential competition capture compound mass spectrometry; type: ADME
T1 sequence (O00764 whole entry): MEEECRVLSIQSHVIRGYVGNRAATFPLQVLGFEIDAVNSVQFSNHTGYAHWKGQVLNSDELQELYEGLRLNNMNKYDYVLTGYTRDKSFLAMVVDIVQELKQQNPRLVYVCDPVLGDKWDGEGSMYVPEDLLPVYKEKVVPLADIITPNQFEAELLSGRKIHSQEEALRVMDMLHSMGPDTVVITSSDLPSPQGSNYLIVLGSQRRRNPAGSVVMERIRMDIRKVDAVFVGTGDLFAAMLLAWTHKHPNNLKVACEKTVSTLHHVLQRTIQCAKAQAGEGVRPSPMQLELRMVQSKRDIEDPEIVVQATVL

[1] = target: T2, 3-hydroxyisobutyryl-CoA hydrolase, mitochondrial (Homo sapiens) (UniProt Q6NVY1); experiment: Binding affinity to human recombinant HIBCH assessed as intensity fold change of cumulated normalized intensity of protein between capture and competition assay at 100 uM after 1 hr in presence of active Tcp-CC-13 by differential competition capture compound mass spectrometry
T2 sequence (whole entry): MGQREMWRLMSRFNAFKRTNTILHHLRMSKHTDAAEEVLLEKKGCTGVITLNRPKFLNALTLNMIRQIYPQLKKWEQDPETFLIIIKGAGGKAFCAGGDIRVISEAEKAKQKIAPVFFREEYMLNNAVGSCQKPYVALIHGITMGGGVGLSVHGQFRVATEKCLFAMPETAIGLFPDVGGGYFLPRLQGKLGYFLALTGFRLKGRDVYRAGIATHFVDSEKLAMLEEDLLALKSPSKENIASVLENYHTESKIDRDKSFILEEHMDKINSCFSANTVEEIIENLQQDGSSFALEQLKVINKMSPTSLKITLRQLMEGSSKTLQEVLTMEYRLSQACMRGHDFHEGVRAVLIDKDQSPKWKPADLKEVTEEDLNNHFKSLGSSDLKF

Acireductone dioxygenase = target: T3, Acireductone dioxygenase (Homo sapiens, UniProt Q9BV57); experiment: Binding affinity to ADL1 in human HepG2 assessed as intensity fold change of cumulated normalized intensity of protein between capture and competition assay at 100 uM after 1 hr in presence of active Tcp-CC-13 by differential competition capture compound mass spectrometry; type: ADME
T3 sequence (Q9BV57 whole entry): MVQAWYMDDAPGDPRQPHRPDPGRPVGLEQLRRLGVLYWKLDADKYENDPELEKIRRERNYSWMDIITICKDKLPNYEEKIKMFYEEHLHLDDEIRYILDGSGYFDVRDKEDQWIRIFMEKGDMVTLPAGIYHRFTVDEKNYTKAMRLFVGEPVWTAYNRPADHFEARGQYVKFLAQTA

[2] = target: T4, Glutaryl-CoA dehydrogenase, mitochondrial (Homo sapiens, UniProt Q92947); experiment: Binding affinity to GCDH in human HepG2 assessed as intensity fold change of cumulated normalized intensity of protein between capture and competition assay at 100 uM after 1 hr in presence of active Tcp-CC-13 by differential competition capture compound mass spectrometry; type: ADME
T4 sequence (Q92947 whole entry): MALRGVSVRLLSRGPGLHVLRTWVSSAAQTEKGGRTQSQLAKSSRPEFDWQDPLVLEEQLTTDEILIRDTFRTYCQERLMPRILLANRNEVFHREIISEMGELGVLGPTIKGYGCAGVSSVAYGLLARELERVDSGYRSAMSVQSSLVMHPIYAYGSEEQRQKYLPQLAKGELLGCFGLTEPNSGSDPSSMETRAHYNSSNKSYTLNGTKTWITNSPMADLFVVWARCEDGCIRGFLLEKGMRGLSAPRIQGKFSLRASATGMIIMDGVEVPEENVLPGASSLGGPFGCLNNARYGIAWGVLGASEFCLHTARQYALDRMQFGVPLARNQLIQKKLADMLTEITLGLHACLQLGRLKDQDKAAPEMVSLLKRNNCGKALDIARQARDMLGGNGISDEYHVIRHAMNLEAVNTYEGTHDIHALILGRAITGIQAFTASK

[3] = target: T5, Catechol O-methyltransferase (Homo sapiens, UniProt P21964); experiment: (§1) Inhibition of human recombinant His-tagged soluble COMT expressed in Escherichia coli BL21 using aesculetin as substrate after 60 mins by microplate assay in presence of SAM
T5 sequence (P21964 whole entry): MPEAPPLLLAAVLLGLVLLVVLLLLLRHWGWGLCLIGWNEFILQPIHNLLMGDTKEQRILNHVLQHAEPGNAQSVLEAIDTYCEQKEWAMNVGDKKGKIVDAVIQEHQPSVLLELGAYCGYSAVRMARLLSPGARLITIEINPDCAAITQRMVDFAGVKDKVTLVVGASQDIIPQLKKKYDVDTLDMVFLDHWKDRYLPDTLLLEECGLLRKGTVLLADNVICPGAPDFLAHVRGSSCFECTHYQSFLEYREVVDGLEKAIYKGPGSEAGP

[4] = target: Aldo-keto reductase family 1 member B10 (Homo sapiens, UniProt O60218); experiment: Binding affinity to AKR1B10 in human HepG2 assessed as intensity fold change of cumulated normalized intensity of protein between capture and competition assay at 100 uM after 1 hr in presence of inactive Tcp-CC 14 by differential competition capture compound mass spectrometry; type: ADME
[5] = target: Kynurenine--oxoglutarate transaminase 3 (Homo sapiens, UniProt Q6YP21); experiment: Binding affinity to CCBL2 in human HepG2 assessed as intensity fold change of cumulated normalized intensity of protein between capture and competition assay at 100 uM after 1 hr in presence of active Tcp-CC-13 by differential competition capture compound mass spectrometry; type: ADME
HepG2 [6] = experiment: Mitochondrial toxicity in human HepG2 cells assessed as mitochondrial membrane potential levels at 50 uM by TMRE-based mitochondria membrane potential assay relative to control; type: cell-based; conditions: hepg2, 50 µM
[7] = target: T6, Protein NipSnap homolog 3A (Homo sapiens, UniProt Q9UFN0); experiment: Binding affinity to NIPSNAP3A in human HepG2 assessed as intensity fold change of cumulated normalized intensity of protein between capture and competition assay at 100 uM after 1 hr in presence of inactive Tcp-CC 14 by differential competition capture compound mass spectrometry; type: ADME
T6 sequence (Q9UFN0 whole entry): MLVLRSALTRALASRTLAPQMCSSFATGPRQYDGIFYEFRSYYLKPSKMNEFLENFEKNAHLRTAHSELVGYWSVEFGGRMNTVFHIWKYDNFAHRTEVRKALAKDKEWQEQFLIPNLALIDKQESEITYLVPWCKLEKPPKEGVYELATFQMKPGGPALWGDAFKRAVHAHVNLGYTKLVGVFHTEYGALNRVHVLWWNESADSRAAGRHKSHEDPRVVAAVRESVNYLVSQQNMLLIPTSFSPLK

[8] = target: T7, Catechol O-methyltransferase (Homo sapiens) (UniProt P21964); experiment: as §1
T7 sequence (whole entry): T5 sequence (P21964 whole entry)

HepG2 [9] = experiment: Mitochondrial toxicity in human HepG2 cells assessed as mitochondrial membrane potential levels at 100 uM by TMRE-based mitochondria membrane potential assay relative to control; type: cell-based; conditions: hepg2, 100 µM
[10] = target: T2, 3-hydroxyisobutyryl-CoA hydrolase, mitochondrial (Homo sapiens); experiment: Binding affinity to human recombinant HIBCH assessed as intensity fold change of cumulated normalized intensity of protein between capture and competition assay at 100 uM after 1 hr in presence of inactive Tcp-CC-14 by differential competition capture compound mass spectrometry

Kynurenine--oxoglutarate transaminase 3, sequence (Q6YP21 whole entry): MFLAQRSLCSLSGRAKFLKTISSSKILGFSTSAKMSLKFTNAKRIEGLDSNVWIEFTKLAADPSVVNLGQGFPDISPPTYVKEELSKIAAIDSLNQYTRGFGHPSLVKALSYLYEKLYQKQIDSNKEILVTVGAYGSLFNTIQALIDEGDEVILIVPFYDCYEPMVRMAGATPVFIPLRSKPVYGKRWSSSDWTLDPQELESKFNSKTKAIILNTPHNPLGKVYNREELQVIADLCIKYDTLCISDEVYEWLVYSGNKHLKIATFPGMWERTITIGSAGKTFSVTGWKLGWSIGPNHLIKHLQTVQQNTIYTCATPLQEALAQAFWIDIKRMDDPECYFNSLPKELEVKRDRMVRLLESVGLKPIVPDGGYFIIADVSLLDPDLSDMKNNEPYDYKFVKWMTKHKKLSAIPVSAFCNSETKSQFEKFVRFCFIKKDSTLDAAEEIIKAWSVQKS
Aldo-keto reductase family 1 member B10, sequence (O60218 whole entry): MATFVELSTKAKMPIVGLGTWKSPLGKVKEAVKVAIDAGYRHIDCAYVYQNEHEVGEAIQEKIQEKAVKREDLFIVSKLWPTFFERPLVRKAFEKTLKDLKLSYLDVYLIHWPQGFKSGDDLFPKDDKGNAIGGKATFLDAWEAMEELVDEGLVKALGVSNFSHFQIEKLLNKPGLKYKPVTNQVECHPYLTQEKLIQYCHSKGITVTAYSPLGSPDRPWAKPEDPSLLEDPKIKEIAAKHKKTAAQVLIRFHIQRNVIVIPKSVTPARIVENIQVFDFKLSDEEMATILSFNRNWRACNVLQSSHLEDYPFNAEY

SMILES	fold change (FC) (Pyridoxal kinase)	fold change (FC) [1]	fold change (FC) (Acireductone dioxygenase)	fold change (FC) [2]	IC50 [3]	fold change (FC) [4]	fold change (FC) [5]	Activity (HepG2 [6])	fold change (FC) [7]	inhibition [8]	Activity (HepG2 [9])	Activity [10]
CCN1C(=O)S/C(=C/c2cc(O)c(O)c([N+](=O)[O-])c2)C1=O	24.9	1	4.29	6.34	179 nM	3.1	3.4	> 50%	3	–	–	–
Cc1ccc(C(=O)c2cc(OCCCCNC(=O)C[C@H](NC(=O)c3ccc(N=[N+]=[N-])cc3)C(=O)NCCCOCCOCCOCCCNC(=O)CCCC[C@@H]3SC[C@@H]4NC(=O)N[C@@H]43)c(O)c([N+](=O)[O-])c2)cc1	–	–	–	–	–	–	–	–	–	inactive	–	–
CCN(CC)C(=O)/C(C#N)=C/c1cc(O)c(O)c([N+](=O)[O-])c1 [ENTACAPONE]	3.46	1.04	2.38	6.09	–	2.98	8.63	> 50%	2.11	–	40%	–
CCN(CC)C(=O)c1cc2cc(O)c(O)c([N+](=O)[O-])c2cc1C(=O)N(CC)CC	16	5.35	3.67	5.9	–	4.7	3.05	< 20%	7.5	–	0%	inactive
CN(Cc1ccc(C(=O)c2cc(O)c(O)c([N+](=O)[O-])c2)cc1)C(=O)CCCCCNC(=O)C[C@H](NC(=O)c1ccc(N=[N+]=[N-])cc1)C(=O)NCCCOCCOCCOCCCNC(=O)CCCC[C@@H]1SC[C@@H]2NC(=O)N[C@@H]21	–	–	–	–	648 nM	–	–	–	–	–	–	–
Cc1ccc(C(=O)c2cc(O)c(O)c([N+](=O)[O-])c2)cc1 [TOLCAPONE]	2.4	14.2	7.59	5.82	–	2.3	4.12	< 20%	–	–	0%	Active
